{
  "source": "the supplement of paper PMC10307832",
  "assay_in_all_cases": "relative viability (nuclei count vs DMSO), 5 days (fraction); higher = more cells survive",
  "key": {"Tozasertib": {"compound": "Cc1cc(Nc2cc(N3CCN(C)CC3)nc(Sc3ccc(NC(=O)C4CC4)cc3)n2)n[nH]1 [Tozasertib]", "in_short": "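Viability was read as treated-well nuclei divided by vehicle-well nuclei, using the median across plates. Lung cancer cell lines in 1536-well plates were kept overnight at 37 °C, pinned with five √10-spaced library-drug doses, and after 5 days were Hoechst-stained, imaged at 4× and counted in MetaXpress. Plates passed only with control CV below 25% and at least one doubling.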"}, "Tozasertib + Foretinib": {"compound": "Cc1cc(Nc2cc(N3CCN(C)CC3)nc(Sc3ccc(NC(=O)C4CC4)cc3)n2)n[nH]1 [Tozasertib] + COc1cc2c(Oc3ccc(NC(=O)C4(C(=O)Nc5ccc(F)cc5)CC4)cc3F)ccnc2cc1OCCCN1CCOCC1 [Foretinib] (partner 0.25 µM)", "in_short": "(§1)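 Relative viability equals treated-well nuclei counts divided by vehicle-well nuclei counts. Counts came from 4× images of lung cancer cell lines grown in 1536-well plates for 5 days after pin-tool dosing on the day after seeding. Dosing used one drug alone or a fixed anchor-drug dose plus five library-drug doses (not always all listed) in √10 steps, and values are medians of duplicate plates.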"}, "Tozasertib + Phenformin": {"compound": "Cc1cc(Nc2cc(N3CCN(C)CC3)nc(Sc3ccc(NC(=O)C4CC4)cc3)n2)n[nH]1 [Tozasertib] + N=C(N)NC(=N)NCCc1ccccc1 [Phenformin] (partner 250 µM)", "in_short": "as §1"}, "Tozasertib + Pemetrexed": {"compound": "Cc1cc(Nc2cc(N3CCN(C)CC3)nc(Sc3ccc(NC(=O)C4CC4)cc3)n2)n[nH]1 [Tozasertib] + Nc1nc2[nH]cc(CCc3ccc(C(=O)N[C@@H](CCC(=O)O)C(=O)O)cc3)c2c(=O)[nH]1 [Pemetrexed] (partner 0.2 µM)", "in_short": "as §1"}, "Tozasertib + AZD7762": {"compound": "Cc1cc(Nc2cc(N3CCN(C)CC3)nc(Sc3ccc(NC(=O)C4CC4)cc3)n2)n[nH]1 [Tozasertib] + NC(=O)Nc1cc(-c2cccc(F)c2)sc1C(=O)N[C@H]1CCCNC1 [AZD7762] (partner 0.2 µM)", "in_short": "as §1"}, "Tozasertib + Palbociclib": {"compound": "Cc1cc(Nc2cc(N3CCN(C)CC3)nc(Sc3ccc(NC(=O)C4CC4)cc3)n2)n[nH]1 [Tozasertib] + CC(=O)c1c(C)c2cnc(Nc3ccc(N4CCNCC4)cn3)nc2n(C2CCCC2)c1=O [Palbociclib] (partner 0.5 µM)", "in_short": "as §1"}, "Tozasertib + OSI-027": {"compound": "Cc1cc(Nc2cc(N3CCN(C)CC3)nc(Sc3ccc(NC(=O)C4CC4)cc3)n2)n[nH]1 [Tozasertib] + COc1cccc2cc(-c3nc([C@H]4CC[C@H](C(=O)O)CC4)n4ncnc(N)c34)[nH]c12 [OSI-027] (partner 0.5 µM)", "in_short": "as §1"}, "Tozasertib + Dasatinib": {"compound": "Cc1cc(Nc2cc(N3CCN(C)CC3)nc(Sc3ccc(NC(=O)C4CC4)cc3)n2)n[nH]1 [Tozasertib] + Cc1nc(Nc2ncc(C(=O)Nc3c(C)cccc3Cl)s2)cc(N2CCN(CCO)CC2)n1 [Dasatinib] (partner 0.075 µM)", "in_short": "as §1"}, "Tozasertib + Decitabine": {"compound": "Cc1cc(Nc2cc(N3CCN(C)CC3)nc(Sc3ccc(NC(=O)C4CC4)cc3)n2)n[nH]1 [Tozasertib] + Nc1ncn([C@H]2C[C@H](O)[C@@H](CO)O2)c(=O)n1 [Decitabine] (partner 2 µM)", "in_short": "as §1"}, "Tozasertib + Vorinostat": {"compound": "Cc1cc(Nc2cc(N3CCN(C)CC3)nc(Sc3ccc(NC(=O)C4CC4)cc3)n2)n[nH]1 [Tozasertib] + O=C(CCCCCCC(=O)Nc1ccccc1)NO [Vorinostat] (partner 1 µM)", "in_short": "as §1"}, "Tozasertib + Olaparib": {"compound": "Cc1cc(Nc2cc(N3CCN(C)CC3)nc(Sc3ccc(NC(=O)C4CC4)cc3)n2)n[nH]1 [Tozasertib] + O=C(c1cc(Cc2n[nH]c(=O)c3ccccc23)ccc1F)N1CCN(C(=O)C2CC2)CC1 [Olaparib] (partner 8 µM)", "in_short": "as §1"}, "Tozasertib + Trametinib": {"compound": "Cc1cc(Nc2cc(N3CCN(C)CC3)nc(Sc3ccc(NC(=O)C4CC4)cc3)n2)n[nH]1 [Tozasertib] + CC(=O)Nc1cccc(-n2c(=O)n(C3CC3)c(=O)c3c(Nc4ccc(I)cc4F)n(C)c(=O)c(C)c32)c1 [Trametinib] (partner 0.02 µM)", "in_short": "as §1"}, "Tozasertib + Luminespib": {"compound": "Cc1cc(Nc2cc(N3CCN(C)CC3)nc(Sc3ccc(NC(=O)C4CC4)cc3)n2)n[nH]1 [Tozasertib] + CCNC(=O)c1noc(-c2cc(C(C)C)c(O)cc2O)c1-c1ccc(CN2CCOCC2)cc1 [Luminespib] (partner 0.01 µM)", "in_short": "as §1"}},
  "data": [
    {"cell line": "SW 900", "values": [
      {"measurement": "relative viability", "setting": "Tozasertib; 0.004 µM", "result": 1.06},
      {"measurement": "relative viability", "setting": "Tozasertib; 0.01265 µM", "result": 0.736},
      {"measurement": "relative viability", "setting": "Tozasertib; 0.04 µM", "result": 0.933},
      {"measurement": "relative viability", "setting": "Tozasertib; 0.1 µM, anchor plate", "result": 0.566},
      {"measurement": "relative viability", "setting": "Tozasertib; 0.1265 µM", "result": 0.62},
      {"measurement": "relative viability", "setting": "Tozasertib + Foretinib; first compound 0.004 µM", "result": 0.914},
      {"measurement": "relative viability", "setting": "Tozasertib + Foretinib; first compound 0.01265 µM", "result": 0.825},
      {"measurement": "relative viability", "setting": "Tozasertib + Foretinib; first compound 0.04 µM", "result": 1.08},
      {"measurement": "relative viability", "setting": "Tozasertib + Foretinib; first compound 0.1265 µM", "result": 0.638},
      {"measurement": "relative viability", "setting": "Tozasertib + Phenformin; first compound 0.004 µM", "result": 0.583},
      {"measurement": "relative viability", "setting": "Tozasertib + Phenformin; first compound 0.01265 µM", "result": 0.381},
      {"measurement": "relative viability", "setting": "Tozasertib + Phenformin; first compound 0.04 µM", "result": 0.708},
      {"measurement": "relative viability", "setting": "Tozasertib + Phenformin; first compound 0.1265 µM", "result": 0.586},
      {"measurement": "relative viability", "setting": "Tozasertib + Pemetrexed; first compound 0.004 µM", "result": 0.516},
      {"measurement": "relative viability", "setting": "Tozasertib + Pemetrexed; first compound 0.04 µM", "result": 0.498},
      {"measurement": "relative viability", "setting": "Tozasertib + Pemetrexed; first compound 0.1265 µM", "result": 0.408},
      {"measurement": "relative viability", "setting": "Tozasertib + AZD7762; first compound 0.004 µM", "result": 0.485},
      {"measurement": "relative viability", "setting": "Tozasertib + AZD7762; first compound 0.01265 µM", "result": 0.72},
      {"measurement": "relative viability", "setting": "Tozasertib + AZD7762; first compound 0.04 µM", "result": 0.622},
      {"measurement": "relative viability", "setting": "Tozasertib + AZD7762; first compound 0.1265 µM", "result": 0.467},
      {"measurement": "relative viability", "setting": "Tozasertib + Palbociclib; first compound 0.004 µM", "result": 0.62},
      {"measurement": "relative viability", "setting": "Tozasertib + Palbociclib; first compound 0.01265 µM", "result": 0.536},
      {"measurement": "relative viability", "setting": "Tozasertib + Palbociclib; first compound 0.04 µM", "result": 0.542},
      {"measurement": "relative viability", "setting": "Tozasertib + Palbociclib; first compound 0.1265 µM", "result": 0.382},
      {"measurement": "relative viability", "setting": "Tozasertib + OSI-027; first compound 0.004 µM", "result": 0.767},
      {"measurement": "relative viability", "setting": "Tozasertib + OSI-027; first compound 0.01265 µM", "result": 0.54},
      {"measurement": "relative viability", "setting": "Tozasertib + OSI-027; first compound 0.04 µM", "result": 0.75},
      {"measurement": "relative viability", "setting": "Tozasertib + OSI-027; first compound 0.1265 µM", "result": 0.28},
      {"measurement": "relative viability", "setting": "Tozasertib + Dasatinib; first compound 0.004 µM", "result": 0.79},
      {"measurement": "relative viability", "setting": "Tozasertib + Dasatinib; first compound 0.01265 µM", "result": 0.51},
      {"measurement": "relative viability", "setting": "Tozasertib + Dasatinib; first compound 0.04 µM", "result": 0.503},
      {"measurement": "relative viability", "setting": "Tozasertib + Dasatinib; first compound 0.1265 µM", "result": 0.567},
      {"measurement": "relative viability", "setting": "Tozasertib + Decitabine; first compound 0.004 µM", "result": 0.43},
      {"measurement": "relative viability", "setting": "Tozasertib + Decitabine; first compound 0.01265 µM", "result": 0.442},
      {"measurement": "relative viability", "setting": "Tozasertib + Decitabine; first compound 0.04 µM", "result": 0.347},
      {"measurement": "relative viability", "setting": "Tozasertib + Decitabine; first compound 0.1265 µM", "result": 0.375},
      {"measurement": "relative viability", "setting": "Tozasertib + Vorinostat; first compound 0.004 µM", "result": 0.579},
      {"measurement": "relative viability", "setting": "Tozasertib + Vorinostat; first compound 0.01265 µM", "result": 0.436},
      {"measurement": "relative viability", "setting": "Tozasertib + Vorinostat; first compound 0.1265 µM", "result": 0.266},
      {"measurement": "relative viability", "setting": "Tozasertib + Olaparib; first compound 0.004 µM", "result": 0.802},
      {"measurement": "relative viability", "setting": "Tozasertib + Olaparib; first compound 0.01265 µM", "result": 0.809},
      {"measurement": "relative viability", "setting": "Tozasertib + Olaparib; first compound 0.04 µM", "result": 0.851},
      {"measurement": "relative viability", "setting": "Tozasertib + Olaparib; first compound 0.1265 µM", "result": 0.619},
      {"measurement": "relative viability", "setting": "Tozasertib + Trametinib; first compound 0.004 µM", "result": 0.653},
      {"measurement": "relative viability", "setting": "Tozasertib + Trametinib; first compound 0.01265 µM", "result": 0.798},
      {"measurement": "relative viability", "setting": "Tozasertib + Trametinib; first compound 0.04 µM", "result": 0.911},
      {"measurement": "relative viability", "setting": "Tozasertib + Trametinib; first compound 0.1265 µM", "result": 0.509},
      {"measurement": "relative viability", "setting": "Tozasertib + Luminespib; first compound 0.004 µM", "result": 0.167},
      {"measurement": "relative viability", "setting": "Tozasertib + Luminespib; first compound 0.01265 µM", "result": 0.188},
      {"measurement": "relative viability", "setting": "Tozasertib + Luminespib; first compound 0.04 µM", "result": 0.205},
      {"measurement": "relative viability", "setting": "Tozasertib + Luminespib; first compound 0.1265 µM", "result": 0.173}
    ]}
  ]
}
